Series [1] can be described thus: LNP formulation comparison: RNA encapsulation efficiency, apparent pKa, LNP size and polydispersity. In kind it is physicochemical. The following applies: LNP with surrogate RNA coding for luciferase; among the screened cationic lipids. As to the method:
(§1) An exemplary LNP delivery system was developed to effectively and safely deliver therapeutic nucleic acids into the cytosol of various cell types after local administration in vivo. The early formulation work was performed with several promising LNP formulations and surrogate RNA coding for luciferase. The aim of the experiments was to correlate the effect of different ionizable cationic lipids on the efficacy of RNA delivery by LNPs in vivo. Formulations were compared in terms of RNA encapsulation efficiency, apparent pKa, LNP size and polydispersity.

The next series has as its system luciferase (Luc) RNA. As to the kind of experiment: In vivo screening of LNP pilot batches using luciferase (Luc) RNA, intravenous administration. The settings on record: on the basis of the in vivo screening studies. As to the method:
as §1
Based on this the ALC-0315/DSPC/CHOL/ALC-0159 prototype was submitted for in vivo screening. The results presented in FIG. 16 summarize the in vivo testing of two independent pilot batches using luciferase (Luc) RNA.
The formulation screening procedure described above involves intravenous administration resulting in delivery primarily to the liver. The mechanism of LNP uptake into hepatocytes is driven by binding of endogenous apolipoproteins to the LNP followed by receptor-mediated endocytosis e.g. through low density lipoprotein receptors. […] Luc expression was monitored at 4, 24, 72 and 96 hours post administration (FIG. 17).

These results are taken from US11951185B2, “RNA constructs and uses thereof” (BioNTech SE, priority 2020, dated 2024).

SMILES strings stand for the structures.

Take `CCCCCCCCC(CCCCCC)C(=O)OCCCCCCN(CCCCO)CCCCCCOC(=O)C(CCCCCC)CCCCCCCC` (centres unmarked) [ALC-0315, ((4-hydroxybutyl)azanediyl)bis(hexane-6,1-diyl)bis(2-hexyldecanoate)]: the “physical characteristics regarding particle size, homogeneity, and RNA encapsulation efficiency” value in series [1] is given as “suitable physical characteristics”. The “potency as cationic lipid” value with luciferase (Luc) RNA is “highly potent”.
